Experiments:
[1] = biological target: T1, ATP-sensitive inward rectifier potassium channel 1 (Homo sapiens) (UniProt P48048); assay: Inhibition of human Kir1.1 expressed in CHO cells by whole cell voltage clamp assay; type: cell-based
T1 sequence (whole entry): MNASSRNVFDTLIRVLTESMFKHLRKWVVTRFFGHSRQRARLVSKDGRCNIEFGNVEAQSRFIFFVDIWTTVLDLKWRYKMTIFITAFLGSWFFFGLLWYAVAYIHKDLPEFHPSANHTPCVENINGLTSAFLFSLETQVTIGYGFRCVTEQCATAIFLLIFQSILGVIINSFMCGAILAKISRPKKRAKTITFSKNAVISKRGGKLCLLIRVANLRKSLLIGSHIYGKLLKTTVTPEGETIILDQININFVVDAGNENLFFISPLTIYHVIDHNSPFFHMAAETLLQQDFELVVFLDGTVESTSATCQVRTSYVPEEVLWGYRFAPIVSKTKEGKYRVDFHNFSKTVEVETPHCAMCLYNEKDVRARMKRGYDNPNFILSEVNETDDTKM

[2] = biological target: T1, ATP-sensitive inward rectifier potassium channel 1 (Homo sapiens); assay: Inhibition of human Kir1.1 expressed in HEK293 cells by thallium flux assay; type: cell-based

O=C1OCc2cc([C@H]3CN4CCN(C(=O)C5CCc6cc(-n7cnnn7)ncc65)C[C@H]4CO3)ccc21 (stereo not given in full)
INH [1]: 0.06 µM

N#Cc1c(F)ccc([C@@H]2CN3CCN(C(=O)C4CCc5nc(-n6cnnn6)ncc54)C[C@@H]3CO2)c1Cl (stereo not given in full)
INH [2]: 0.17 µM
INH [1]: 0.06 µM

Cc1c([C@@H]2CN3CCN(C(=O)C4CCc5nc(-n6cnnn6)ccc54)C[C@H]3CO2)ccc(F)c1C#N (stereo not given in full)
INH [2]: 0.14 µM
INH [1]: 0.08 µM

N#Cc1c(F)ccc([C@@H]2CN3CCN(C(=O)C4CCc5cc(-n6cnnn6)ncc54)C[C@H]3CO2)c1F (stereo not given in full)
INH [2]: 0.16 µM
INH [1]: 0.04 µM

O=C1OCc2cc([C@@H]3CN4CCN(C(=O)C5CCc6nc(-n7cnnn7)ccc65)C[C@H]4CO3)ccc21 (stereo not given in full)
INH [2]: 0.11 µM
INH [1]: 0.09 µM

Cc1c([C@H]2CN3CCN(C(=O)C4CCc5nc(-n6cnnn6)ccc54)C[C@H]3CN2)ccc(F)c1C#N (stereo not given in full)
INH [2]: 0.16 µM
INH [1]: 0.09 µM

Cc1c([C@@H]2CN3CCN(C(=O)C4CCc5nc(-n6cnnn6)ccc54)C[C@H]3CO2)csc1C#N (stereo not given in full)
INH [2]: 0.54 µM
INH [1]: 0.06 µM

Cc1c([C@H]2CN3CCN(C(=O)C4CCc5cc(-n6cnnn6)ncc54)C[C@H]3CN2)ccc(F)c1C#N (stereo not given in full)
INH [2]: 0.18 µM
INH [1]: 0.1 µM
